What was measured:
[1] = system: S-ADH from M. vaccae JOB-5; assay: S-ADH spectrophotometric assay, propane-grown M. vaccae JOB-5; assay type: biochemical, Mycobacterium vaccae strain JOB-5; settings: for Relative S-ADH Activity (%) JOB 5, alcohol oxidation: alcohol oxidation rates, pH 7.6, 2.5 mM substrate, 0.2 mM NAD+, 2-propanol = 100, NA = no activity detected; for Relative S-ADH Activity (%) JOB 5, ketone reduction: ketone reduction rates, pH 6.2, 2.5 mM substrate, 0.2 mM NADH, acetone = 100
Protocol: Assays were performed in 2 mL quartz cuvettes and contained NAD(H) (0.2 mM), potassium phosphate buffer (25 mM), and a source of enzyme (cell-free extracts, column fractions, or purified enzyme) in a total reaction volume of 1 mL at pH 6.2 ([…]) at 30° C. Assays were pre-incubated for 1.5 min. at 30° C. with all assay components except substrate. Assays were initiated by addition of substrate (2.5 mM) and monitored over time by measuring the change in absorbance at 340 nm (∈340 of 6.22 mM^−1·cm^−1 for NADH).

[2] = target: T1, acetone carboxylase coupled to β-hydroxybutyrate dehydrogenase (Xanthobacter versatilis, UniProt Q8RM03+Q8RM04); assay: Acetone carboxylase coupled to NADH oxidation spectrophotometric assay; assay type: biochemical, X. autotrophicus strain Py2; settings: for activity as substrate and inhibition of acetone carboxylation activity: alternative compounds in coupled enzyme system
T1 construct: host or cells: X. autotrophicus strain Py2 (native organism; enzyme obtained from Prof; S. A. Ensign / purified as previously published)
T1 sequence (Q8RM03 1-776): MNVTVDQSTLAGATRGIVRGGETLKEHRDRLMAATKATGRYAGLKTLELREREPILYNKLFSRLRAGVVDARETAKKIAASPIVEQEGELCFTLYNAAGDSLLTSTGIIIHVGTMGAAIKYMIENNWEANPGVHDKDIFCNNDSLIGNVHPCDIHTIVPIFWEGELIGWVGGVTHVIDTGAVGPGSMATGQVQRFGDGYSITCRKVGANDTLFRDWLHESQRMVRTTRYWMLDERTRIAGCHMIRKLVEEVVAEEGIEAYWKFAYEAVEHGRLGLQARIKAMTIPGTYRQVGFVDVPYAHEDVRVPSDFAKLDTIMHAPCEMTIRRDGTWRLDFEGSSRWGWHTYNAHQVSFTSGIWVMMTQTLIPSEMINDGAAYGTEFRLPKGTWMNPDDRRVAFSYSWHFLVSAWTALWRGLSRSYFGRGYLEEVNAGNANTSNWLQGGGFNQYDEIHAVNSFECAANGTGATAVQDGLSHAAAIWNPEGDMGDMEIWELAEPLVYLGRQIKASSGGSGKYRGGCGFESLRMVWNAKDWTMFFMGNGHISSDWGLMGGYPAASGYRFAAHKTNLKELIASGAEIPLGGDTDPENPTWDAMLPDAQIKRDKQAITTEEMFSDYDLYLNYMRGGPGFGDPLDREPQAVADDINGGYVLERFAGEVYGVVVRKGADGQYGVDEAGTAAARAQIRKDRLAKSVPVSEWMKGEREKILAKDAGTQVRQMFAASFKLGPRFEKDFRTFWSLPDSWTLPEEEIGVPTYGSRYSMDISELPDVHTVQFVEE
T1 sequence (Q8RM04 1-717): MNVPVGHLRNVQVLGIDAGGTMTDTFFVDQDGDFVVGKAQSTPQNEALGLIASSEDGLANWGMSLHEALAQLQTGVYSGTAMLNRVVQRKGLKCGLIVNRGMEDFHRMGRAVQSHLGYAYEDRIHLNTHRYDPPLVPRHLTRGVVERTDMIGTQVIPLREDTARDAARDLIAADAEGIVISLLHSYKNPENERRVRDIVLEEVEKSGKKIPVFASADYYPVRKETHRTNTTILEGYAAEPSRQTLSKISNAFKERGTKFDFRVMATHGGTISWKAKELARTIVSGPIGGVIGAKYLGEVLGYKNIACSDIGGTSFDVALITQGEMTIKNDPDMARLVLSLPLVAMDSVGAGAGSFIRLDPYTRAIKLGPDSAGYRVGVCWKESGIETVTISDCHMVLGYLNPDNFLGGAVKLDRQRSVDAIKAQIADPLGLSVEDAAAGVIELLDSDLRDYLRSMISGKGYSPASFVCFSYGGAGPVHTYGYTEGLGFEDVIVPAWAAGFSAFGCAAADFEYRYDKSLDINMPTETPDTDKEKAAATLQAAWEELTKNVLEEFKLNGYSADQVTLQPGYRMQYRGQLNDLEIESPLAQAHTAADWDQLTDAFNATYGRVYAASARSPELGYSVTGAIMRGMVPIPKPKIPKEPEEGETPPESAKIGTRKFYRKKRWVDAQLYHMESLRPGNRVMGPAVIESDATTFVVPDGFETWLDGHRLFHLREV
T1 sequence (Q8RM02 2-168 partner limits assumed): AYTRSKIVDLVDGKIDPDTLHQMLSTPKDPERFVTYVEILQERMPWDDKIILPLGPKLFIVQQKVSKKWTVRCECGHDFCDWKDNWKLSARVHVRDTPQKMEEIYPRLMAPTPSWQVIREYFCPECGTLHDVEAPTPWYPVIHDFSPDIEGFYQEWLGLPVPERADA
Protocol: Assays were performed in 2 mL (1 cm path length) quartz cuvettes that had been modified by fusing a serum bottle-style quartz top (7×13 mm at mouth), allowing the cuvettes to be sealed with a red rubber serum stopper. […] The addition of […] (3 U) and NADH (0.2 mM) allowed acetoacetate formation to be coupled to the oxidation of NADH. […] The reaction was monitored by measuring the decrease in absorbance at 340 nm (∈340 of 6.22 mM^−·cm^−1 for NADH) over time in an Agilent Technologies (Palo Alto, Calif.) model 8453 UV-Visible Spectroscopy System containing a thermostat-controlled cell holder at 30° C.

[3] = system: secondary alcohol dehydrogenase from R. rhodochrous PNKb1; settings: R. rhodochrous PNKb1 enzyme; cited from earlier work
S-ADH from T. brockii = target: T2, S-ADH from T. brockii (Thermoanaerobacter brockii, UniProt P14941); assay: S-ADH spectrophotometric assay, T. brockii S-ADH; assay type: biochemical, Thermoanaerobium brockii; settings: for Relative S-ADH Activity (%) T. brockii, alcohol oxidation: alcohol oxidation rates, pH 7.6, 2.5 mM substrate, 0.2 mM NADP+, 2-propanol = 100, NA = no activity detected; for Relative S-ADH Activity (%) T. brockii, ketone reduction: ketone reduction rates, pH 6.2, 2.5 mM substrate, 0.2 mM NADPH, acetone = 100
T2 sequence (P14941 1-352): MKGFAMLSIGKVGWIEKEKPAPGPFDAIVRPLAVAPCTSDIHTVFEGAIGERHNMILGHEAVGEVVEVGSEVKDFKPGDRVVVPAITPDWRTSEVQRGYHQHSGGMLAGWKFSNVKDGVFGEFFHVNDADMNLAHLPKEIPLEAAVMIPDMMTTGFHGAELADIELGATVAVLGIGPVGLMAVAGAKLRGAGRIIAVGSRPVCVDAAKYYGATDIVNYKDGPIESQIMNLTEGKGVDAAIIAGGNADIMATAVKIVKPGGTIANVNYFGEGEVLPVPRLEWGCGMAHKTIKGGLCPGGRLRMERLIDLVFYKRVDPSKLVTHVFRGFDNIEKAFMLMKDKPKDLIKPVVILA
Protocol: […] Assays were pre-incubated for 1.5 min. at 30° C. with all assay components except substrate. Assays were initiated by addition of substrate (2.5 mM) and monitored over time by measuring the change in absorbance at 340 nm (∈340 of 6.22 mM^−1·cm^−1 for NADH).

[4] = target: T3, acetone carboxylase from X. autotrophicus strain Py2 (Xanthobacter versatilis, UniProt Q8RM03+Q8RM04); settings: cited from earlier work
T3 sequence (Q8RM03 1-776): T1 sequence (Q8RM03 1-776)
T3 sequence (Q8RM04 1-717): T1 sequence (Q8RM04 1-717)
T3 sequence (Q8RM02 2-168 partner limits assumed): T1 sequence (Q8RM02 2-168 partner limits assumed)

Compound | Relative S-ADH Activity (%) JOB 5, alcohol oxidation [1] | activity as substrate and inhibition of acetone carboxylation activity [2] | Km [3] | Relative S-ADH Activity (%) T. brockii, alcohol oxidation (S-ADH from T. brockii) | Relative S-ADH Activity (%) JOB 5, ketone reduction [1] | Relative S-ADH Activity (%) T. brockii, ketone reduction (S-ADH from T. brockii) | other results
CC(C)O [2-Propanol] | 100% | not active nor did they inhibit acetone carboxylation activity | 12 mM | 100% |  |  | 
CCO [Ethanol] |  |  |  |  |  |  | effect on rate of NADH oxidation (inhibition) ([2]; addition of ethanol (10 mM)): no decrease in the rate was observed
CC(C)=O [Acetone, acetone] |  |  |  |  | 100% | 100% | Vmax [4]: 0.206 μmol acetone consumed·min^−1·mg^−1 protein; Km ([4]; read-out: apparent Km): 0.0078 mM
CCC(C)O (stereo not shown) [2-Butanol] | 130% | not active nor did they inhibit acetone carboxylation activity |  | 121% |  |  | 
CCCO [1-Propanol] | 9% | not active nor did they inhibit acetone carboxylation activity | 18 mM |  |  |  | 
CCC(C)=O [2-Butanone] |  |  |  |  | 213% | 67% | rate relative to acetone using the coupled enzyme system [2]: 3 to 4%; carboxylation rate relative to that of acetone [4]: 40%
